From patent US12180162B1, “2-amino-4-(4-bromophenyl)-6-methoxypyridine-3,5-dicarbonitrile as an antibacterial compound” (KING FAISAL UNIVERSITY, priority 2023, dated 2024)
Like-named read-outs stand apart in the source and are kept apart here.

What was measured:
Test in all cases: Antibacterial screening, agar disc-diffusion method
Format in all cases: cell-based
[1] = test system: Bacillus Cereus; conditions: Gram positive, 6 mm disc, 10 μL of 10 mg/mL in DMSO, DMSO zone subtracted
Protocol: (§1) The antibacterial properties of the synthesized compound 2-amino-4-(4-bromophenyl)-6-methoxypyridine-3,5-dicarbonitrile were studied by the method of agar disc-diffusion method. Sterilized filter papers (6 mm in diameter) were wetted with 10 μL of a solution of 2-amino-4-(4-bromophenyl)-6-methoxypyridine-3,5-dicarbonitrile (3) to be tested, containing 10 mg/mL in DMSO, and the discs were allowed to air dry. The discs were then placed onto the surface of agar plates (nutrient agar for bacteria) seeded with the test organism. Each plate contained 15 mL of the agar medium, previously seeded with 0.2 mL of the broth culture of each organism pregrown for 18 hours. The inhibition zones was measured in mm. Discs impregnated with DMSO were used as a control, and its inhibition zone was subtracted from the tested compound actual inhibition zone. […] Their antibacterial screened against gram positive bacteria namely Bacillus cereus and Staphylococcus aureus and gram-negative bacterial strains namely Pseudomonas aeruginosa and Escherichia coli.

[2] = test system: Escherichia coli; conditions: Gram negative, 6 mm disc, 10 μL of 10 mg/mL in DMSO, DMSO zone subtracted
Protocol: as §1

[3] = test system: Pseudomonas aeruginosa; conditions: Gram negative, 6 mm disc, 10 μL of 10 mg/mL in DMSO, DMSO zone subtracted
Protocol: as §1

[4] = test system: Staphylococcus aureus; conditions: Gram positive, 6 mm disc, 10 μL of 10 mg/mL in DMSO, DMSO zone subtracted
Protocol: as §1

## COc1nc(N)c(C#N)c(-c2ccc(Br)cc2)c1C#N [Compound 3, 2-amino-4-(4-bromophenyl)-6-methoxypyridine-3,5-dicarbonitrile]
[1]; sub-column A (not defined), read-out: inhibition zone, Bacillus Cereus, A
  zone of inhibition at 10000 µg/mL: 32 mm
[1]; sub-column B (not defined), read-out: inhibition zone, Bacillus Cereus, B
  zone of inhibition at 10000 µg/mL: 37 mm
[1]; sub-column C (not defined), read-out: inhibition zone, Bacillus Cereus, C
  zone of inhibition at 10000 µg/mL: 40 mm
[2]; sub-column A (not defined), read-out: inhibition zone, Escherichia coli, A
  zone of inhibition at 10000 µg/mL: 39 mm
[2]; sub-column B (not defined), read-out: inhibition zone, Escherichia coli, B
  zone of inhibition at 10000 µg/mL: 41 mm
[2]; sub-column C (not defined), read-out: inhibition zone, Escherichia coli, C
  zone of inhibition at 10000 µg/mL: 46 mm
[3]; sub-column A (not defined), read-out: inhibition zone, Pseudomonas aeruginosa, A
  zone of inhibition at 10000 µg/mL: 24 mm
[3]; sub-column B (not defined), read-out: inhibition zone, Pseudomonas aeruginosa, B
  zone of inhibition at 10000 µg/mL: 34 mm
[3]; sub-column C (not defined), read-out: inhibition zone, Pseudomonas aeruginosa, C
  zone of inhibition at 10000 µg/mL: 39 mm
[4]; sub-column A (not defined), read-out: inhibition zone, Staphylococcus aureus, A
  zone of inhibition at 10000 µg/mL: 18 mm
[4]; sub-column B (not defined), read-out: inhibition zone, Staphylococcus aureus, B
  zone of inhibition at 10000 µg/mL: 27 mm
[4]; sub-column C (not defined), read-out: inhibition zone, Staphylococcus aureus, C
  zone of inhibition at 10000 µg/mL: 33 mm
